Reference: the supplement of paper PMC11451515

Test system: P12-Ichikawa
Assay: cell viability relative to DMSO control; higher = less cytotoxic
Conditions: 48 h
Method in brief: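 Viability is expressed as a percentage of DMSO wells within each plate, and cell-free wells serve as background. Seeding densities in the 1536-well plates (5 μl) were 500 cells/well for NOMO1 or SEM leukemia cells and 1000 cells/well for P12-Ichikawa. Each line was adapted for at least four passages in each medium. Library compounds in DMSO were pin-dosed at 47 μM to 0.79 nM (11 points, threefold), and CellTiter-Glo One luminescence was read after 48 h at 37°C.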

CC1=C(CC(=O)O)c2cc(F)ccc2/C1=C\c1ccc([S+](C)[O-])cc1 (configuration not stated)
cell viability [%]
Conditions	HPLM + 10% dialyzed FBS	RPMI 5 mM glucose + 10% dialyzed FBS
0.000781 µM	121	121
0.00234 µM	110	120
0.00702 µM	116	127
0.0211 µM	123	125
0.0632 µM	124	112
0.19 µM	117	122
0.569 µM	116	109
1.71 µM	109	108
5.12 µM	108	111
15.4 µM	106	111
46.1 µM	101	105
